“And” between values parts separate entries of the source, which are not always exact repeats. Identical values can stand only once.
System: WM3248 melanoma cells, 486 antibodies
Test: Reverse phase protein arrays (RPPA)
Type: cell-based, Human
Text: Pellets were snap frozen in liquid nitrogen and shipped to MD Anderson Cancer Center core RPPA facility for RPPA analysis (Table S5). Three biological replicates for each sample were generated.
Nomenclatures on the RPPA heatmaps: name_of_antibody.species_of_antibody.status_of_antibody. V - antibody validated; C - validation of antibody in progress; Q - antibody nonspecific; E – under evaluation; antibodies raised in M - mouse, G - goat, R - rabbit, or T - rat.

[1] = Norm_20, replicates 1-3 and Average, relative to Norm_0

Compound: CN(C)c1cccc(Nc2cc(-c3ccccc3)nc(C3CCNCC3)n2)c1 [ARN22089, N1,N1-dimethyl-N3-(6-phenyl-2-(piperidin-4-yl)pyrimidin-4-yl)benzene-1,3-diamine]
- Bax.R.V RPPA signal, normalized [1]: 1.116 and 1.001 and 1.099
- Bcl2.R.C RPPA signal, normalized [1]: 1.192 and 1.263 and 1.147 and 1.201
- Bcl.xL.R.V RPPA signal, normalized [1]: 1.010 and 1.055 and 1.349 and 1.138
- Beclin.R.C RPPA signal, normalized [1]: 0.940 and 1.021 and 1.001
- BiP.GRP78.M.C RPPA signal, normalized [1]: 0.957 and 0.997 and 0.968
- Bid.R.C RPPA signal, normalized [1]: 1.024 and 0.874 and 0.875 and 0.925
- Bim.R.V RPPA signal, normalized [1]: 1.050 and 0.910 and 0.906 and 0.955
- X4E.BP1.R.V RPPA signal, normalized [1]: 0.857 and 0.934 and 2.342 and 1.377
- X4E.BP1_pS65.R.V RPPA signal, normalized [1]: 0.791 and 0.833 and 1.063 and 0.895
- X4E.BP1_pT37_T46.R.V RPPA signal, normalized [1]: 0.867 and 0.753 and 1.126 and 0.915
- X14.3.3.zeta.R.V RPPA signal, normalized [1]: 0.941 and 0.920 and 0.970 and 0.944
- X14.3.3βR.V RPPA signal, normalized [1]: 1.101 and 1.160 and 0.888 and 1.050
- X14.3.3εM.C RPPA signal, normalized [1]: 0.855 and 0.892 and 1.081 and 0.943
- X53BP1.R.V RPPA signal, normalized [1]: 1.138 and 0.986 and 1.047 and 1.057
- b.Actin.R.C RPPA signal, normalized [1]: 1.058 and 1.299 and 1.110 and 1.155
- b.Catenin.R.V RPPA signal, normalized [1]: 0.975 and 0.858 and 1.031 and 0.954
- b.Catenin_pT41_S45.R.V RPPA signal, normalized [1]: 1.047 and 1.076
- c.Abl.R.V RPPA signal, normalized [1]: 1.061 and 1.026 and 1.186
- c.Abl_pY412.R.C RPPA signal, normalized [1]: 1.034 and 0.935 and 1.009 and 0.993
- c.IAP2.R.C RPPA signal, normalized [1]: 1.049 and 1.145 and 1.104 and 1.100
- C.Raf.R.C normalized signal (Norm_20 Average): 0.952
- CA9.R.C normalized signal (Norm_20 Average): 0.890
- CD2.M.C normalized signal (Norm_20 Average): 0.871
- CD4.R.V normalized signal (Norm_20 Average): 1.005
- CD5.M.C normalized signal (Norm_20 Average): 0.944
- CD20.R.C normalized signal (Norm_20 Average): 1.356
- CD26.R.V normalized signal (Norm_20 Average): 1.108
- CD29.M.V normalized signal (Norm_20 Average): 0.892
- CD31.M.V normalized signal (Norm_20 Average): 0.916
- CD44.R.C normalized signal (Norm_20 Average): 1.001
- CD45.M.V normalized signal (Norm_20 Average): 0.902
- CD49b.M.V normalized signal (Norm_20 Average): 1.012
- CD68.M.C normalized signal (Norm_20 Average): 0.968
- CD74.M.V normalized signal (Norm_20 Average): 0.926
- CD134.R.V normalized signal (Norm_20 Average): 0.946
- CD171.M.V normalized signal (Norm_20 Average): 0.712
- CDK1_pT14.R.C normalized signal (Norm_20 Average): 1.008
- CDK9.R.V normalized signal (Norm_20 Average): 0.932
- CDKN2A.R.C normalized signal (Norm_20 Average): 0.921
- CDT1.R.V normalized signal (Norm_20 Average): 0.857
- CENP.A.R.V normalized signal (Norm_20 Average): 1.525
- CRABP1.R.C normalized signal (Norm_20 Average): 0.968
- CRABP2.R.V normalized signal (Norm_20 Average): 0.841
- CREB_pS133.R.C normalized signal (Norm_20 Average): 1.190
- CSK.R.C normalized signal (Norm_20 Average): 0.923
- Calnexin.R.V normalized signal (Norm_20 Average): 0.926
- Caspase.3.cleaved.R.C normalized signal (Norm_20 Average): 1.013
- Caspase.7.cleaved..R.C normalized signal (Norm_20 Average): 1.013
- Caspase.8.M.Q normalized signal (Norm_20 Average): 0.961
- Caspase.8.cleaved.R.C normalized signal (Norm_20 Average): 0.957
- Caveolin.1.R.V normalized signal (Norm_20 Average): 0.866
- Cdc6.R.V normalized signal (Norm_20 Average): 0.851
- Cdc42.R.C normalized signal (Norm_20 Average): 0.996
- Chk1.M.C normalized signal (Norm_20 Average): 0.786
- Chk1_pS345.R.C normalized signal (Norm_20 Average): 1.170
- Chk2.M.V normalized signal (Norm_20 Average): 0.875
- Chk2_pT68.R.C normalized signal (Norm_20 Average): 1.128
- Claudin.7.R.V normalized signal (Norm_20 Average): 1.226
- Collagen.VI.R.V normalized signal (Norm_20 Average): 1.013
- Complex.II.Subunit.M.V normalized signal (Norm_20 Average): 1.002
- Coup.TFII.R.C normalized signal (Norm_20 Average): 1.005
- Cox2.R.C normalized signal (Norm_20 Average): 1.349
- Cox.IV.R.V normalized signal (Norm_20 Average): 0.992
- Creb.R.C normalized signal (Norm_20 Average): 1.053
- CtIP.R.V normalized signal (Norm_20 Average): 0.962
- Cyclin.B1.R.V normalized signal (Norm_20 Average): 0.968
- Cyclin.D1.R.C normalized signal (Norm_20 Average): 0.986
- Cyclin.D3.M.V normalized signal (Norm_20 Average): 0.749
- Cyclin.E1.R.V normalized signal (Norm_20 Average): 0.902
- Cyclophilin.F.M.V normalized signal (Norm_20 Average): 0.934
- D.a.Tubulin.R.V normalized signal (Norm_20 Average): 0.990
- DAPK1_pS308.M.C normalized signal (Norm_20 Average): 2.076
- DAPK2.R.C normalized signal (Norm_20 Average): 1.013
- DDB.1.R.V normalized signal (Norm_20 Average): 0.922
- DDR1.R.V normalized signal (Norm_20 Average): 0.996
- DDR1_pY513.R.C normalized signal (Norm_20 Average): 1.082
- DJ1.R.V normalized signal (Norm_20 Average): 0.929
- DM.Histone.H3.R.V normalized signal (Norm_20 Average): 1.963
- DM.K9.Histone.H3.M.V normalized signal (Norm_20 Average): 1.372
- DNA.Ligase.IV.R.C normalized signal (Norm_20 Average): 0.924
- DNA_POLG.R.V normalized signal (Norm_20 Average): 1.084

— publication PMC9127750, “Structure-based design of CDC42 effector interaction inhibitors for the treatment of cancer” (Cell reports, 2022)
